# Reference: PMC5452050 (ACS Omega, 2017)
# Changes are numbered by the printed parent chain.
# Tested on: MOLM13^FLT3-ITD/D835Y cells
# Assay: MOLM13 cell viability
# Type: cell-based
# Details: Homo sapiens, MOLM-13, 72 h, read-out: MOLM13^FLT3-ITD/D835Y IC50
row,SMILES,IC50 [nM]
1,"c1cncc(-c2cccc(Nc3nccc(NC4CCCCC4)n3)c2)c1 [Compound 1, N^4-Cyclohexyl-N^2-(3-(pyridin-3-yl)phenyl)pyrimidine-2,4-diamine]",1150
2,"CC(C)Nc1ccnc(Nc2cccc(-c3cccnc3)c2)n1 [Compound 5e, N^4-Isopropyl-N^2-(3-(pyridin-3-yl)phenyl)pyrimidine-2,4-diamine]",82
3,"CC(C)Nc1ccnc(Nc2ccccc2-c2ccccc2)n1 [Compound 6a, N^2-([1,1′-Biphenyl]-2-yl)-N^4-isopropylpyrimidine-2,4-diamine]",4260

# Biological target: T1, FLT3 (D835Y) (Homo sapiens, UniProt P36888, D835Y)
# T1 sequence (P36888 27-993 D835Y): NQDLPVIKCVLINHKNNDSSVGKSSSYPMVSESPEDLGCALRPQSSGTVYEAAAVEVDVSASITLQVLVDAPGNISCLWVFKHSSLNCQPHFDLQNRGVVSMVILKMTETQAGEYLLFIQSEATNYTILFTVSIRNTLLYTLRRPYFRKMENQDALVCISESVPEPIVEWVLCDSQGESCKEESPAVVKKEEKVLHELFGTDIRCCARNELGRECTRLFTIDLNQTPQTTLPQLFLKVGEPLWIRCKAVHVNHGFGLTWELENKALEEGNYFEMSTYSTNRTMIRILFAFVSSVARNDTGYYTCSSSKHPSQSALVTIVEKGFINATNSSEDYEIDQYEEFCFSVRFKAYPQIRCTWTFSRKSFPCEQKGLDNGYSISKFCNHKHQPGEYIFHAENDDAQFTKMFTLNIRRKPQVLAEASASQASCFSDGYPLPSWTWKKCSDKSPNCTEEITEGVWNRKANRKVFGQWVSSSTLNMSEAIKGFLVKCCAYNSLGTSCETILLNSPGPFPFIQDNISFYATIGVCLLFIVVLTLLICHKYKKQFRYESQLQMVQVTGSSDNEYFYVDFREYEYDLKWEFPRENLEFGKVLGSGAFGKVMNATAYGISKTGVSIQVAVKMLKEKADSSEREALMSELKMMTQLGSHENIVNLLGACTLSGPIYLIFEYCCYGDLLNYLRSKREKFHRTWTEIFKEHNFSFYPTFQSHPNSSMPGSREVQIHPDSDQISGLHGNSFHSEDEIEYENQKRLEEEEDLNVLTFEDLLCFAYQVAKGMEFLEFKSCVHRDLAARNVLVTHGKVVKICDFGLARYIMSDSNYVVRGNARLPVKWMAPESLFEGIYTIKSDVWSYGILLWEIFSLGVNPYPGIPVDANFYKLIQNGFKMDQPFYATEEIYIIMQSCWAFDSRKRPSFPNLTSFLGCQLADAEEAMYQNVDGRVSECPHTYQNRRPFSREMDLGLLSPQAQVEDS
# Assay: Kd determination
# Type: binding
# Details: not given
row,SMILES,Kd [nM]
1,"c1cncc(-c2cccc(Nc3nccc(NC4CCCCC4)n3)c2)c1 [Compound 1, N^4-Cyclohexyl-N^2-(3-(pyridin-3-yl)phenyl)pyrimidine-2,4-diamine]",13
2,"CC(C)Nc1ccnc(Nc2cccc(-c3cccnc3)c2)n1 [Compound 5e, N^4-Isopropyl-N^2-(3-(pyridin-3-yl)phenyl)pyrimidine-2,4-diamine]",0.59
3,"CC(C)Nc1ccnc(Nc2ccccc2-c2ccccc2)n1 [Compound 6a, N^2-([1,1′-Biphenyl]-2-yl)-N^4-isopropylpyrimidine-2,4-diamine]",> 10000

# Biological target: T2, FLT3 (ITD, D835V) (Homo sapiens, UniProt P36888, D835V/ITD)
# T2 sequence (P36888 564-993 D835V): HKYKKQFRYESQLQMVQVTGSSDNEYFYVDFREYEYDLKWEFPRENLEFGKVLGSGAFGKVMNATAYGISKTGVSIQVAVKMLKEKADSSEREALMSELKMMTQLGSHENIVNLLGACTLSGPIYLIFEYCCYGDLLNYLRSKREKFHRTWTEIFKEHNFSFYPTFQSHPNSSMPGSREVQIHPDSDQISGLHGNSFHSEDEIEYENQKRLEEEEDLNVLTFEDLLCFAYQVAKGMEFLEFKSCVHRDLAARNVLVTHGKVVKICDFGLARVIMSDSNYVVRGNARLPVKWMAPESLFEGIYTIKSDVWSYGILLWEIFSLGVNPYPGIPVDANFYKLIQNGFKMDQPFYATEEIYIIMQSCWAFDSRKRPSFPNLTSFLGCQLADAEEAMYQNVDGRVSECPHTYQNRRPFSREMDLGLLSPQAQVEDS
# Assay: Kd determination
# Type: binding
# Details: not given
row,SMILES,Kd [nM]
1,"c1cncc(-c2cccc(Nc3nccc(NC4CCCCC4)n3)c2)c1 [Compound 1, N^4-Cyclohexyl-N^2-(3-(pyridin-3-yl)phenyl)pyrimidine-2,4-diamine]",7.2
2,"CC(C)Nc1ccnc(Nc2cccc(-c3cccnc3)c2)n1 [Compound 5e, N^4-Isopropyl-N^2-(3-(pyridin-3-yl)phenyl)pyrimidine-2,4-diamine]",0.36
3,"CC(C)Nc1ccnc(Nc2ccccc2-c2ccccc2)n1 [Compound 6a, N^2-([1,1′-Biphenyl]-2-yl)-N^4-isopropylpyrimidine-2,4-diamine]",> 10000

# Biological target: T3, FLT3 (N841I) (Homo sapiens, UniProt P36888, N841I)
# T3 sequence (P36888 27-993 N841I): T1 sequence (P36888 27-993 D835Y) with Y809D, N815I
# Assay: Kd determination
# Type: binding
# Details: not given
row,SMILES,Kd [nM]
1,"c1cncc(-c2cccc(Nc3nccc(NC4CCCCC4)n3)c2)c1 [Compound 1, N^4-Cyclohexyl-N^2-(3-(pyridin-3-yl)phenyl)pyrimidine-2,4-diamine]",48
2,"CC(C)Nc1ccnc(Nc2cccc(-c3cccnc3)c2)n1 [Compound 5e, N^4-Isopropyl-N^2-(3-(pyridin-3-yl)phenyl)pyrimidine-2,4-diamine]",11
3,"CC(C)Nc1ccnc(Nc2ccccc2-c2ccccc2)n1 [Compound 6a, N^2-([1,1′-Biphenyl]-2-yl)-N^4-isopropylpyrimidine-2,4-diamine]",> 10000
